Results reported in patent publication US7049289B1, “Labelled glutamine and lysine analogues” (Amersham PLC, priority 1998, dated 2006).
Read-outs that look alike come from different tables or passages of the source. The star is where a group is joined. Adamantane1carbonyl = O=C(C12CC3CC(CC(C3)C1)C2)*

How the values were obtained:
[1] = Incorporation into clots induced in a rat model (rat inferior vena cava model); assay type: in vivo, rat (Male Wistar); settings: for % id/g (clot) / Rel. Conc. (cpm/g of clot by dose/g animal): sacrificed after 60 min
How it was run: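 Male Wistar rats (250–350 g) under 15% urethane anaesthesia, with the vena cava isolated by laparotomy. Compounds given 5 min (fresh clot) or 60 min (aged clot) after clot induction; clot, blood, lung and heart removed 60 min later, weighed and counted. Uptake expressed as cpm/g clot per dose/g animal and as clot-to-background tissue ratio.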

[2] = human, plasma, 2 h
Method: (§1) To a portion of compound (50 μl, 10 MBq/ml) was added an equal volume of plasma (rat or human) or saline. The mixtures were incubated at 37° C. and the stability measured by HPLC (system C) at 0, 30 and 120 minutes. The saline dilution acted as a control.

[3] = molecular target: T1, fibrin (in vitro human plasma clot) (Homo sapiens, UniProt P02671+P02675+P02679); experiment: Incorporation into human plasma clots in vitro; assay type: biochemical; settings: for % specific uptake: % retained (with thrombin) - % retained (no thrombin); for % retained (no thrombin): control without thrombin and calcium chloride (non-specific binding); for % retained (with thrombin): human plasma clot, 60 minutes, ca. 20° C.
T1 construct: about 400 μl of human plasma containing the radiolabelled substrate; from tissue; host or cells: human plasma, clotted in vitro with added thrombin and calcium chloride
T1 sequence (P02671 20-644 isoform P02671-2 limits assumed): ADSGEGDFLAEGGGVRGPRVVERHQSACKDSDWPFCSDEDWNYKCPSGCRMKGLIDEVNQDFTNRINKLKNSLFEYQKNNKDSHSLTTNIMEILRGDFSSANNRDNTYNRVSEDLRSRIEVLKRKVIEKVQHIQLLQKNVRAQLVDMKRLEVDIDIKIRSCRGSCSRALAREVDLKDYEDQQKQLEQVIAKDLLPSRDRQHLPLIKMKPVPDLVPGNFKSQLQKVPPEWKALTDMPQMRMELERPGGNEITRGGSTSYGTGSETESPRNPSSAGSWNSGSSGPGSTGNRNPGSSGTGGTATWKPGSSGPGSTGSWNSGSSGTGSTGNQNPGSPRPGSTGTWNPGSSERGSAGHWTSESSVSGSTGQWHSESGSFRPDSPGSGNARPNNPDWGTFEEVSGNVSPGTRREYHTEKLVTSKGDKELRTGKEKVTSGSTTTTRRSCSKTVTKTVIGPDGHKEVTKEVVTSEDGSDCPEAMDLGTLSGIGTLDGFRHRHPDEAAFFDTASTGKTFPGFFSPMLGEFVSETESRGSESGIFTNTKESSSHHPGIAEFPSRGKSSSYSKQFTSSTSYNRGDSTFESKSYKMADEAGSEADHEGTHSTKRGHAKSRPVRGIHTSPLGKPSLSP
T1 sequence (P02675 45-491 limits assumed): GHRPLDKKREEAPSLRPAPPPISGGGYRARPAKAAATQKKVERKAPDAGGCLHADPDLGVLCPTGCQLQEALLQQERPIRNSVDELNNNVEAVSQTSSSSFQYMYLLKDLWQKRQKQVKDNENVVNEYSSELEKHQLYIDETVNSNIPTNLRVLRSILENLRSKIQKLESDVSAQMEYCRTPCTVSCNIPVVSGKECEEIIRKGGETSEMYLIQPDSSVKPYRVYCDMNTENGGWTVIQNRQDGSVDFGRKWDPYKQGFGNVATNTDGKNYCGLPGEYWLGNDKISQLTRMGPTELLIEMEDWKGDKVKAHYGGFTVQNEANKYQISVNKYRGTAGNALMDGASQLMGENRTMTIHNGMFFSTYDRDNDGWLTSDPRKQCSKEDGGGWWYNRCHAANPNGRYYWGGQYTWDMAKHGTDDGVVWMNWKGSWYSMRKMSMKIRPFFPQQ
T1 sequence (P02679 27-437 isoform P02679-2 limits assumed): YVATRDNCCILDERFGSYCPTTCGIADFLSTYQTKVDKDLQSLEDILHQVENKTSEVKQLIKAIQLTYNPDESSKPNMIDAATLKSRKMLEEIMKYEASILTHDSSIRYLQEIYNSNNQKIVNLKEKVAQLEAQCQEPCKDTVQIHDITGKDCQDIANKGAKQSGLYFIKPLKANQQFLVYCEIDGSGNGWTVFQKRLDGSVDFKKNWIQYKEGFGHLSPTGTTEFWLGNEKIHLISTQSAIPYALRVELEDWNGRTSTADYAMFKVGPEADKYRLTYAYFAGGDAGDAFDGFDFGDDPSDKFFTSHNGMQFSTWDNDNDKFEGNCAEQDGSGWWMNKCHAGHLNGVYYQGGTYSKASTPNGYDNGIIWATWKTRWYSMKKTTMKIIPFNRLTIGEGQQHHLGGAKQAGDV
How it was run: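 Human plasma containing radiolabelled substrate (typically 10 kBq/ml) clotted with thrombin in Tris-saline pH 7.5 with 4 mM CaCl2, 60 min at ca. 20 °C, then stopped with cold EDTA. Clots collected on nitrocellulose filters and washed; incorporation is filter-retained radioactivity fraction minus non-specific binding from thrombin/calcium-free controls.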

[4] = rat, plasma, 2 h
Method: as §1

[5] = Aged Clots: injected 60 min post-induction
[6] = Fresh Clots: injected 5 min post-induction

| Substance | Clot/blood ([1]; Aged Clots) | Clot/heart ([1]; Aged Clots) | Clot/liver ([1]; Aged Clots) | Clot/lung ([1]; Aged Clots) | % id/g (clot) [1, 5] [% id/g] | Rel. Conc. (cpm/g of clot by dose/g animal) [1, 5] | Clot/blood ([1]; Fresh Clots) | Clot/heart ([1]; Fresh Clots) | Clot/liver ([1]; Fresh Clots) | Clot/lung ([1]; Fresh Clots) | % id/g (clot) [1, 6] [% id/g] | Rel. Conc. (cpm/g of clot by dose/g animal) [1, 6] | % intact at 120 mins [2] [%] | % specific uptake [3] [%] | % retained (no thrombin) [3] [%] | % retained (with thrombin) [3] [%] | % intact at 120 mins [4] [%] | in vitro clot uptake (in words) [3] |
| --- | --- | --- | --- | --- | --- | --- | --- | --- | --- | --- | --- | --- | --- | --- | --- | --- | --- | --- |
| Ac-NQEAVSPYTLLKG-Pn44 (also: 99mTc complex) [^99mTc-Cmpd 12] | 19 | 75 | 7 | 15 | 4.1 ± 1.2 | 11.2 ± 3.4 | 20 | 31 | 8 | 17 | 7.3 ± 4.1 | 19.8 ± 11.0 | >90 | 34.5 | 0.3 | 34.8 | >90 | – |
| Ac-NQEQVSPYTLLKG-Hynic (also: 99mTc complex) [^99mTc-Cmpd 4] | 8 | 19 | 19 | 10 | 1.2 ± 1.1 | 4.1 ± 4.0 | 6 | 15 | 20 | 8 | 2.0 ± 0.6 | 6.5 ± 2.0 | >90 | 21.0 | 0.1 | 22.0 | >90 | – |
| Ac-NQEQVG-Pn44 [^99mTc-Cmpd 17] | 3 | 7 | 3 | 5 | 0.8 ± 0.1 | 2.7 ± 0.6 | 7 | 18 | 5 | 12 | 1.2 ± 0.7 | 3.7 ± 2.3 | >90 | 40.6 | 0.7 | 41.3 | >90 | – |
| Ac-NQG-Pn44 [^99mTc-Cmpd 16] | – | – | – | – | – | – | 3 | 8 | 0.8 | 3 | 0.3 ± 0.1 | 1.0 ± 0.2 | >90 | 12.4 | 0.1 | 12.5 | >90 | significant reduction in uptake |
| Ac-NQEQ(D-V)(D-S)(D-P)(D-Y)(D-T)(D-L)(D-L)(D-K)G-Pn44 [^99mTc-Cmpd 35] | 1 | 1 | 2 | 0.5 | 0.6 ± 0.1 | 1.5 ± 0.4 | 2 | 4 | 2 | 2 | 1.2 ± 0.2 | 3.7 ± 0.8 | – | 15.3 | 0.6 | 15.9 | – | – |
| Ac-NQEQVSP-Nal(2)-TLLKG-Pn216 [^99mTc-Cmpd 20] | 10 | 36 | 23 | 14 | 1.7 ± 0.5 | 4.9 ± 1.4 | 12 | 30 | 18 | 11 | 2.3 ± 0.6 | 6.5 ± 1.3 | – | 62.4 | 2.6 | 65.0 | – | – |
| Adamantoyl-NQEQVSPYTLLKG-Pn216 (Adamantane1carbonyl-NQEQVSPYTLLKG-Pn216; also: 99mTc complex) [^99mTc-Cmpd 11] | 5 | 13 | 4 | 6 | 0.4 ± 0.3 | 1.2 ± 0.8 | 10 | 24 | 11 | 11 | 1.1 ± 0.4 | 3.3 ± 1.1 | – | 66.9 | 1.2 | 68.1 | – | – |
| Z-NQEQVSP(I-Y)TLLKG-Pn216 [^99mTc-Cmpd 24] | 15 | 40 | 37 | 20 | 4.1 ± 2.5 | 11.9 ± 8.0 | 10 | 21 | 11 | 10 | 4.0 ± 2.2 | 11.1 ± 6.7 | – | 56.4 | 0.4 | 56.8 | – | – |
| Cyclo-[NQEQVSPYTLLKG] (cyclo(NQEQVSPYTLLKG); also: 123I label, place not given here) [^123I-Cmpd 44] | 0.9 | 1 | 1 | 2 | 0.5 ± 0.03 | 1.2 ± 0.1 | 0.9 | 1 | 2 | 1.5 | 0.4 ± 0.1 | 1.1 ± 0.2 | – | 13.8 | 0.3 | 14.1 | – | – |
| Ac-GQDPVKG-Pn216 (also: 99mTc complex) [^99mTc-Cmpd 48] | 1 | 32 | 26 | 109 | 0.2 ± 0.04 | 0.8 ± 0.2 | 0.6 | 2 | 3 | 0.9 | 0.3 ± 0.2 | 1.0 ± 0.5 | – | 10.5 | 0.1 | 10.6 | – | significant reduction in uptake |
